From article PMC8060913, “The Calcium-Activated Chloride Channel TMEM16A is Inhibitied by Liquiritigenin” (Frontiers in Pharmacology, 2021)
Read-outs that look alike come from different tables or passages of the source.

Key:
Format in all cases: cell-based
[1] = biological target: T1, human TMEM16A (hTMEM16A, anoctamin 1) (Homo sapiens, UniProt Q5XXA6); assay: whole-cell patch-clamp in transfected HEK293T cells, % inhibition at […], +[…] mV; details: HEK-293T
T1 construct: gene ANO1; untagged complete CDS
T1 sequence (Q5XXA6 1-986): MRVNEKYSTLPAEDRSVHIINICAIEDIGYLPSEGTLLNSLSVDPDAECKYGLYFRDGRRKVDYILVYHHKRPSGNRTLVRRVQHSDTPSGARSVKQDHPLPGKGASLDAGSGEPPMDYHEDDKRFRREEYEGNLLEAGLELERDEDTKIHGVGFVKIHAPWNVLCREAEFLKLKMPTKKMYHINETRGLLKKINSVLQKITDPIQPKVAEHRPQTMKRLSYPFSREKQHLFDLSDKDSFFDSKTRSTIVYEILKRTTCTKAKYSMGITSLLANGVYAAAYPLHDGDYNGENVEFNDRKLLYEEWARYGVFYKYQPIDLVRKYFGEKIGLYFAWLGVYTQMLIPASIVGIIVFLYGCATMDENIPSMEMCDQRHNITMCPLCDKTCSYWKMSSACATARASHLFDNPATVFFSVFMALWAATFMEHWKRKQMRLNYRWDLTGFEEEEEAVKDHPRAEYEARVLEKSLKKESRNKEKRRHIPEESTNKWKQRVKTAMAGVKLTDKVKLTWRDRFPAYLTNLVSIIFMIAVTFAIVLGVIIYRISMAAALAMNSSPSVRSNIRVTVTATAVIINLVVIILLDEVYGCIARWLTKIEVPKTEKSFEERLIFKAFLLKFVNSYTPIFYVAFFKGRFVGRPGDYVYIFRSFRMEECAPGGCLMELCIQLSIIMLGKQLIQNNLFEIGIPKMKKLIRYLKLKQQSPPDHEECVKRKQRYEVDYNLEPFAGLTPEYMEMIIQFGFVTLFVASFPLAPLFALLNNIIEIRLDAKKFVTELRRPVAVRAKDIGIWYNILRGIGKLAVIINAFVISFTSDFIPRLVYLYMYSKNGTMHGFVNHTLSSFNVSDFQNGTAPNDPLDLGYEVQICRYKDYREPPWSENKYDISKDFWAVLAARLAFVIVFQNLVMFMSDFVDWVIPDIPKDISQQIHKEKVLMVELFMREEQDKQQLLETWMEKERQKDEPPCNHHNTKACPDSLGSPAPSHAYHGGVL

[2] = biological target: T2, mouse TMEM16A (mTMEM16A, anoctamin 1) (Mus musculus, UniProt Q8BHY3); assay: as above; details: HEK-293T
T2 construct: gene Ano1
T2 sequence (Q8BHY3 1-960): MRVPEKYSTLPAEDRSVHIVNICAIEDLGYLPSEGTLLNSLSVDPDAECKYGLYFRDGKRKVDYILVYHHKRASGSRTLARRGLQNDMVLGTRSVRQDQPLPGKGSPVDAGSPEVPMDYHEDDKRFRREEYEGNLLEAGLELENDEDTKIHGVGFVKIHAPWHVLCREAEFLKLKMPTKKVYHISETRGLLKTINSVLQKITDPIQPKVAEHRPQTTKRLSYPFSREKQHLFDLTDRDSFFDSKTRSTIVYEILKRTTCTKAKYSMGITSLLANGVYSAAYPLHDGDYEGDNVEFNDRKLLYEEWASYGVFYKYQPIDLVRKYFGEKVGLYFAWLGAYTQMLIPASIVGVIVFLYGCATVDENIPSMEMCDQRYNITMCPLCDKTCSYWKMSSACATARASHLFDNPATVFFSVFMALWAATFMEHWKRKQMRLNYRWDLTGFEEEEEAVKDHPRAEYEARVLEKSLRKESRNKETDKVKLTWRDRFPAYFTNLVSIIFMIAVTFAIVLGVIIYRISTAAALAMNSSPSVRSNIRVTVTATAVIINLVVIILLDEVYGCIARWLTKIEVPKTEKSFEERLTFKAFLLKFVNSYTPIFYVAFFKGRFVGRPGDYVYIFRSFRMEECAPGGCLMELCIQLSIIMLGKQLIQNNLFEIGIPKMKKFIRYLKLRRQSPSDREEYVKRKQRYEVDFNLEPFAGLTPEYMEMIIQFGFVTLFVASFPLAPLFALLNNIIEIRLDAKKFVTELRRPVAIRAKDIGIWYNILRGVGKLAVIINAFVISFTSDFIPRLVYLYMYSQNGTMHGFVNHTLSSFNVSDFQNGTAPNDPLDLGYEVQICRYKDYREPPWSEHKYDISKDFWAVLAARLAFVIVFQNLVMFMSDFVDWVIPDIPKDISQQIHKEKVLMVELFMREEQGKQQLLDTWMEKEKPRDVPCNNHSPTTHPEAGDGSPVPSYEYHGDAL

[3] = biological target: T1, human TMEM16A (hTMEM16A, anoctamin 1); assay: whole-cell patch-clamp in transfected HEK293T cells, +[…] mV
[4] = biological target: T2, mouse TMEM16A (mTMEM16A, anoctamin 1); assay: as above

## C[C@]12CC[C@@H]3c4ccc(O)cc4CC[C@H]3[C@@H]1C[C@@H](O)[C@@H]2O [E3, estriol]
[1]
  inhibition at 100 µM: 43.5%
[2]
  inhibition at 100 µM: 56.8%

## O=C1C[C@@H](c2ccc(O)cc2)Oc2cc(O)ccc21 [liquiritigenin]
[3]
  IC50: 12.9 µM
[4]
  IC50: 21.3 µM

## O=C1c2ccc(O)cc2OCC1c1ccc(O)cc1 (stereo not drawn) [dihydrodaidzein]
[3]; read-out: IC50
  IC50: 251 µM
[4]; read-out: IC50
  IC50: 178 µM
